Experimental data from patent US11028075B2, “Therapeutic compounds and methods of use thereof” (GENENTECH, INC., priority 2018, dated 2021).
Where a name gives a salt, the structure may show the parent alone.

Legend:
hNav1.7 [1] = biological target: T1, hNav1.7 (Homo sapiens (Human), UniProt Q15858); assay: Electrophysiological assay (EP), voltage clamp on Syncropatch 384PE, CHO cells stably expressing Nav1.7; type: cell-based; details: holding potential −50 mV, 7.5 min compound incubation, read-out: EP_SP hNav1.7 EVO IC50
Description: Example 93C. Electrophysiological Assay (EP) (In Vitro Assay)
Patch voltage clamp electrophysiology allows for the direct measurement and quantification of block of voltage-gated sodium channels (NaV's), and allows the determination of the time- and voltage-dependence of block which has been interpreted as differential binding to the resting, open, and inactivated states of the sodium channel (Hille, B., Journal of General Physiology (1977), 69: 497-515).
The following voltage clamp electrophysiology studies are performed on representative compounds using cells heterologously expressing Nav1.7 or Nav1.5 channels. cDNAsfor Nav1.7 (NM_002977) and Nav1.5 (AC137587) are stably expressed in Chinese Hamstr Ovary (CHO) cells and CHL (Chinese Hamster Lung) cells respectively. Sodium currents are measured in the whole-cell configuration using Syncropatch 384PE (Nanlon Technologies, Germany). 1NPC®-384 chips with custom medium resistance and single hole mode are used. Internal solution consists of (in mM): […], 10 […], 20 EGTA, and 10 Hepes (pH adjusted to 7.2); and external solution contains (in mM): 60 NMDG, 80 NaCl, 4 KCl, 1 MgCl2, 2 CaCl2, 2 D-Glucose monohydrate, 10 Hepes (pH adjusted to 7.4 with NaOH).
After system flushing, testing compounds are dissolved in external solution containing 0.1% Pluronic F-127. The chip is moved into the measuring head and the instrument primes the chip with external and internal solutions. 10 μl cells are added to the chip from a cell hotel, and a negative pressure of −50 mBar is applied to form a seal. Following treatment with seal enhancer solution and wash-off with external solution, negative pressure of −250 mbar is applied for 1 second to achieve the whole-cell configuration, followed by three washing steps in external solution. 20 μl of compounds is added to 40 μl in each well (1:3 dilution of compounds), and after mixing, 20 μl is removed so the volume is retained at 40 μl. After approximately 13 minutes recordings, 20 μl/well of 2 uM TTX, or 333 uM Tetracaine (for Nav1.5) is added to achieve full block.
For voltage protocol, an holding potential of −50 mV is applied during the whole experiment. A depolarizing step is applied to −10 mV for 10 ms, followed by a hyperpolarization step to −150 mV for 20 ms to allow channel recovery from inactivation. A second depolarizing step is applied from −150 mV to −10 mV for 10 ms, where currents are measured to derive blocking effects of compounds. Inhibition is determined based on 7.5 min of compound incubation.
Target sequence in this assay (Q15858 other isoform, or with tags, fused parts or gaps): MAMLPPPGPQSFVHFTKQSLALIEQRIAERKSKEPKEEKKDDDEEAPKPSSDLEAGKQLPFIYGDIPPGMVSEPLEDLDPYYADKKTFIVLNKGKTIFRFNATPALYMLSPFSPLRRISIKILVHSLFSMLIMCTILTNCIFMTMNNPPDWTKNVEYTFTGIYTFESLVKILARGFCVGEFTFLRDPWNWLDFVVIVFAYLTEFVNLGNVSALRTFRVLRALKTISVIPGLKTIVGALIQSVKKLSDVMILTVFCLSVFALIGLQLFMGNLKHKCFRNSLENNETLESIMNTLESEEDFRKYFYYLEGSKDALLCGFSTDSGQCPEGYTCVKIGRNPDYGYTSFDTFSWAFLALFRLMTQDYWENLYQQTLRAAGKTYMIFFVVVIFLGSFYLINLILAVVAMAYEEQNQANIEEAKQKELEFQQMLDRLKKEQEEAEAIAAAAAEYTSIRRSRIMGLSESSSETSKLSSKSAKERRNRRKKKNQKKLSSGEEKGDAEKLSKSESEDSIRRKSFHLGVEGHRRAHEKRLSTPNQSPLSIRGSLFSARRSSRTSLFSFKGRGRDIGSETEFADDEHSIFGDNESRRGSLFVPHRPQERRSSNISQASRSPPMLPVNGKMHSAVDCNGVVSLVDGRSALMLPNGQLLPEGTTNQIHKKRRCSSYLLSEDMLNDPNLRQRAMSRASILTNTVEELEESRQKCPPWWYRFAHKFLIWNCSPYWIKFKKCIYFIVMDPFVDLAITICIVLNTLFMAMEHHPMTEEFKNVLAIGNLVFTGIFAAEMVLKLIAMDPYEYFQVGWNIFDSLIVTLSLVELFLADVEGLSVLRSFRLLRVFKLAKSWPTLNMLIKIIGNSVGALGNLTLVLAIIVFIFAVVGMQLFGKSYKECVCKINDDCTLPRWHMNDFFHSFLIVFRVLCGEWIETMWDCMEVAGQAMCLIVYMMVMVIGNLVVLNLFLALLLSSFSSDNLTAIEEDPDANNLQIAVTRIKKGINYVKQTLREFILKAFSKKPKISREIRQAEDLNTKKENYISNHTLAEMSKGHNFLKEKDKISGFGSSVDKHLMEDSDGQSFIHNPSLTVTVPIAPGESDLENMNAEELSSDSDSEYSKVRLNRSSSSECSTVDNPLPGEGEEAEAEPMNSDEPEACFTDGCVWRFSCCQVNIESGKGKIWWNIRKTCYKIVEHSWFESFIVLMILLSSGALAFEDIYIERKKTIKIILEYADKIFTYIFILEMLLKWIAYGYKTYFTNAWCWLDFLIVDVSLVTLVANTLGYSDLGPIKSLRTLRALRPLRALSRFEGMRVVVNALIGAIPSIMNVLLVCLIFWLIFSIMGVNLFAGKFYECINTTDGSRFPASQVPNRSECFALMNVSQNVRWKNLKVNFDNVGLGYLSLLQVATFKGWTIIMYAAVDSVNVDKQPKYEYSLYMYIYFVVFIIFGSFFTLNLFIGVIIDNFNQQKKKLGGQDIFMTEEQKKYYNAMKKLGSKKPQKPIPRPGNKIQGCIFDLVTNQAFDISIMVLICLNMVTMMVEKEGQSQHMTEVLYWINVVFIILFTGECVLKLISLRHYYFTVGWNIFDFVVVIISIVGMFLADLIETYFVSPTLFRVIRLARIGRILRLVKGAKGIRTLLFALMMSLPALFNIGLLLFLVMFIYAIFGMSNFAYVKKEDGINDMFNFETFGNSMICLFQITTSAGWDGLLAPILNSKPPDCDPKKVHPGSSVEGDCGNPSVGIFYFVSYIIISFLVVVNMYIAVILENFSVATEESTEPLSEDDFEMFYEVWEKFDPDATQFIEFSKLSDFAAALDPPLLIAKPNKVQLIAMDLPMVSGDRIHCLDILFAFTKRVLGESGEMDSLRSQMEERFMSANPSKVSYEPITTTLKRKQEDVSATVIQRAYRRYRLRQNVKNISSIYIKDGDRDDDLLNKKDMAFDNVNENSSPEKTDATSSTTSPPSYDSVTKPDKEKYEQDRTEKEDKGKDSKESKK

hNav1.7 [2] = biological target: T1, hNav1.7; assay: Tritiated compound binding to membranes from cells heterologously expressing hNav1.7 and the β1 subunit (Nav1.7 LBA); details: competitive binding vs [3H]compound, membranes with hNav1.7 and β1 subunit; read-out: Nav1.7 LBA EVO IC50
Method: Example 93A. Tritiated Compound Binding to Membranes Isolated from Cells that Heterologously Express hNav1.7 and the β1 Subunit
Preparation of membranes containing recombinantly expressed sodium channels: Frozen recombinant cell pellets are thawed on ice and diluted to 4 times the cell pellet weight with ice cold 50 mM Tris HCl, pH 7.4 buffer. The cell suspensions are homogenized on ice using a motorized glass dounce homogeniser. Homogenates are further diluted 8.4 times with ice cold 50 mM Tris HCl, pH 7.4 buffer and then centrifuged at 200×g at 4° C. for 15 minutes. The supernatants are collected and centrifuged at 10000×g at 4° C. for 50 min. The pellets are then re-suspended in 100 mM NaCl, 20 mM Tris HCl, pH 7.4 buffer containing 1% v/v protease inhibitors (Calbiochem) and re-homogenized on ice. The homogenized membranes are then processed through a syringe equipped with a 26 gauge needle. Protein concentrations arer determined by Bradford Assay and the membranes are stored at −80° C.
Saturation experiments. A competitive NaV1.7 inhibitor having a methyl group is tritiated. Three tritiums are incorporated in place of methyl hydrogens to generate [^3H]compound. Binding of this radioligand is performed in 5 mL borosilicate glass test tubes at room temperature. Binding is initiated by adding membranes to increasing concentrations of [^3H]compound in 100 mM NaCl, 20 mM Tris HCl, pH 7.4 buffer containing 0.01% w/v bovine serum albumin (BSA) for 18 h. Non-specific binding is determined in the presence of 1 μM unlabeled compound. After 18 h, the reactants are filtered through GF/C glass fiber filters presoaked in 0.5% w/v polyethylene imine. Filters are washed with 15 mL ice cold 100 mM NaCl, 20 mM Tris HCl, pH7.4 buffer containing 0.25% BSA to separate bound from free ligand. [^3H]compound bound to filters is quantified by liquid scintillation counting.
Binding reactions are performed in 96-well polypropylene plates at room temperature for 18 h. In 360 μL, membranes are incubated with […] [^3H]compound and increasing concentrations of Test Compound. Non-specific binding is defined in the presence of 1 μM unlabeled compound. Reactions are transferred and filtered through 96-well glass fiber/C filter plates presoaked with 0.5% polyethylene imine. The filtered reactions are washed 5 times with 200 μL ice cold buffer containing 0.25% BSA. Bound radioactivity is determined by liquid scintillation counting.
Data Analysis: For saturation experiments, non-specific binding is subtracted from total binding to provide specific binding and these values are recalculated in terms of pmol ligand bound per mg protein. Saturation curves are constructed and dissociation constants are calculated using the single site ligand binding model: Beq=(Bmax*X)/(X+Kd), where Beq is the amount of ligand bound at equilibrium, Bmax is the maximum receptor density, Kd is the dissociation constant for the ligand, and X is the free ligand concentration. For competition studies percent inhibition is determined and IC50 values are calculated using a 4 parameter logistic model (% inhibition=(A+((B−A)/(1+((x/C)^D)))) using XLfit, where A and B are the maximal and minimum inhibition respectively, C is the IC50 concentration and D is the (Hill) slope.
Example 93B. Tritiated Compound Binding to Membranes Isolated from Cells that Heterologous Express hNav1.7 and the β1 Subunit
Following the procedure described in Example 93A, and making modifications as required to: centrifuge supernatants at 100000×g instead of 10000×g; re-suspend pellets in a buffer containing 0.01% BSA in addition to 100 mM NaCl, 20 mM Tris HCl, pH 7.4 buffer, and 1% v/v proteasome inhibitors; and storing membranes at −80° C. in single use aliquots instead of pooled. […]
Target sequence in this assay (Q15858 whole entry, looked up): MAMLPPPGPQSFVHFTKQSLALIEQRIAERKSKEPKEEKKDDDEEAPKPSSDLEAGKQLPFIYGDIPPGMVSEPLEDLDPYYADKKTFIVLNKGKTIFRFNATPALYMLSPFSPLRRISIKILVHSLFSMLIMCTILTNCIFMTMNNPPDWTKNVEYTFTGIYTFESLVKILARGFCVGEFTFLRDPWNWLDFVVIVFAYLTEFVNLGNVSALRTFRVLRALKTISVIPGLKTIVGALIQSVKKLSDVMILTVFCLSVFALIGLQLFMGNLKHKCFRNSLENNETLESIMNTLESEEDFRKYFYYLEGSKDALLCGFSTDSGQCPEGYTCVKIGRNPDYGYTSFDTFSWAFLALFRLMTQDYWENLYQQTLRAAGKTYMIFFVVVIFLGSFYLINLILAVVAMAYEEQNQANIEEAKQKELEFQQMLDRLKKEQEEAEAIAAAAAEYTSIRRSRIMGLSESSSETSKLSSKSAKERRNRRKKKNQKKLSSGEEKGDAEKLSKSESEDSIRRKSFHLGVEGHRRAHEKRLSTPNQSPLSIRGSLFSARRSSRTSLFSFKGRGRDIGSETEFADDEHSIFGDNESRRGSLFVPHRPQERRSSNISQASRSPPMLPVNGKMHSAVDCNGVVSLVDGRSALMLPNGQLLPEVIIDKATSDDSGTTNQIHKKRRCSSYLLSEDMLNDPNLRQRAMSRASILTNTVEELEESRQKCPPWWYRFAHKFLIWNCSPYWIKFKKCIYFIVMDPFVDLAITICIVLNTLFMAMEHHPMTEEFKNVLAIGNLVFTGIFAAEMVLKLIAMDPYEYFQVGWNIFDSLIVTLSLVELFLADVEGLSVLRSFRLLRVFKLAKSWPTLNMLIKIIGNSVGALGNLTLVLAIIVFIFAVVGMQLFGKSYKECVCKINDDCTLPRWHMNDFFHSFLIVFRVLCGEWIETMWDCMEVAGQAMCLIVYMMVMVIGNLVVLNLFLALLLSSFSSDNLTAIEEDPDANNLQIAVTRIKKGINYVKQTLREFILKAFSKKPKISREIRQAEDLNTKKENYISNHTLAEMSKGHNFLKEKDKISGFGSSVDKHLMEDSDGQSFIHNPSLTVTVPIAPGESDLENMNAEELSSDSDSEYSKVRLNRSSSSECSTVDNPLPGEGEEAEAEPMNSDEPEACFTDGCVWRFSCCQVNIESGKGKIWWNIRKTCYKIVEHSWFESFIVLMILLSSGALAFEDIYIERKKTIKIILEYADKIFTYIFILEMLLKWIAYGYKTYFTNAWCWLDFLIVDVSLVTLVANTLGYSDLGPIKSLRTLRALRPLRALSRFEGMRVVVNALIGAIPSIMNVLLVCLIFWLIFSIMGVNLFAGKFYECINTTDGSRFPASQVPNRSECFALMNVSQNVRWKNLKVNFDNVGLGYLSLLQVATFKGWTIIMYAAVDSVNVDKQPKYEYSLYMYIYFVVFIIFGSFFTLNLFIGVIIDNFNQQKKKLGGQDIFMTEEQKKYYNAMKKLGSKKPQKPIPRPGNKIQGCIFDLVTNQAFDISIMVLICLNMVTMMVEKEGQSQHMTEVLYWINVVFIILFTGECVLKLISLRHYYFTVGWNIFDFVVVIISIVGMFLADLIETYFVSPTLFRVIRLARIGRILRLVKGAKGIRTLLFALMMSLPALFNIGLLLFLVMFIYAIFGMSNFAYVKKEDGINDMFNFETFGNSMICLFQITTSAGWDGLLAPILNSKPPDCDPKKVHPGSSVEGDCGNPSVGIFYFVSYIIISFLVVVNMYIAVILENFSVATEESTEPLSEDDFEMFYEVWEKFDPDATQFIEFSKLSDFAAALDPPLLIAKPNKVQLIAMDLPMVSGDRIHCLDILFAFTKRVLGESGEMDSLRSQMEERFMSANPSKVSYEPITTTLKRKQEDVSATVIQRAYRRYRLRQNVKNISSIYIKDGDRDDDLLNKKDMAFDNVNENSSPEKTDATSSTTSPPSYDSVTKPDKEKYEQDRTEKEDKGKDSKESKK
Target sequence in this assay (Q07699 whole entry partner, looked up): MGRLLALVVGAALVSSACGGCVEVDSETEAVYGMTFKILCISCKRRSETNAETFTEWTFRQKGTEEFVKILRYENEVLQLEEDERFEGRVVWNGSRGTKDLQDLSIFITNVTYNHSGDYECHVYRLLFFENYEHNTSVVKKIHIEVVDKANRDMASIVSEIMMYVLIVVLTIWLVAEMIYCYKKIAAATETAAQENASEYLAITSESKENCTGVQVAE

With “4-(((1S,2S,4S)-2-(azetidin-3-yl(methyl)amino)-4-(3-(trifluoromethyl)phenyl)cyclohexyl)oxy)-5-chloro-2-fluoro-N-(pyrimidin-4-yl)benzenesulfonamide [Example 80]” the IC50 (hNav1.7 [1]) was 0.317 nM and the IC50 (hNav1.7 [2]) was 0.39 nM.

“5-Chloro-4-(((1S,3R,4R,6R)-7,7-dichloro-4-(dimethylamino)-6-(3-(trifluoromethyl)-phenyl)bicyclo[4.1.0]heptan-3-yl)amino)-2-fluoro-N-(pyrimidin-4-yl)benzenesulfonamide [Example 53]” gave an IC50 (hNav1.7 [1]) of 1.86 nM and an IC50 (hNav1.7 [2]) of 46.2 nM.

“5-Chloro-4-(((3 S,4S,6S)-7,7-dichloro-4-(dimethylamino)-6-(3-(trifluoromethyl)phenyl)-bicyclo[4.1.0]heptan-3-yl)amino)-2-fluoro-N-(pyrimidin-4-yl)benzenesulfonamide [Example 52]” showed an IC50 (hNav1.7 [1]) of 496 nM and an IC50 (hNav1.7 [2]) of 2000 nM.

Compound `CN(C)[C@@H]1C[C@](O)(c2cccc(C(F)(F)F)c2)CC[C@H]1Nc1cc(F)c(S(=O)(=O)Nc2ccncn2)cc1Cl` (single isomer, unassigned) [Example 36, formate] has an IC50 (hNav1.7 [1]) of 144 nM and an IC50 (hNav1.7 [2]) of 309 nM.

`CN(C)[C@H]1C[C@](O)(c2cccc(C(F)(F)F)c2)CC[C@@H]1Nc1cc(F)c(S(=O)(=O)Nc2ccncn2)cc1Cl` (single isomer, unassigned) [Example 37] was tested, and the IC50 (hNav1.7 [1]) was 371 nM and the IC50 (hNav1.7 [2]) was at least 2000 nM.

`CN(C)[C@@H]1C[C@@](O)(c2cccc(C(F)(F)F)c2)CC[C@H]1Nc1cc(F)c(S(=O)(=O)Nc2ccncn2)cc1Cl` (single isomer, unassigned) [Example 38, formate] showed an IC50 (hNav1.7 [1]) of 9440 nM and an IC50 (hNav1.7 [2]) of at least 2000 nM.

Compound `CN(C)[C@H]1C[C@@H](c2ccccc2C(F)(F)F)CC[C@@H]1Nc1cc(F)c(S(=O)(=O)Nc2ccncn2)cc1Cl` (single isomer, unassigned) [Example 77] has an IC50 (hNav1.7 [1]) of 211 nM and an IC50 (hNav1.7 [2]) of 643 nM.

Compound `CN(C)[C@@H]1C[C@H](c2ccccc2C(F)(F)F)CC[C@H]1Nc1cc(F)c(S(=O)(=O)Nc2ccncn2)cc1Cl` (single isomer, unassigned) [Example 78] has an IC50 (hNav1.7 [1]) of 1.37 nM and an IC50 (hNav1.7 [2]) of 12.2 nM.

Work on `CN(C)[C@H]1C[C@@H](c2cccc(C(F)(F)F)c2)CC[C@@H]1N1C(=O)COc2cc(S(=O)(=O)Nc3ccncn3)c(F)cc21` [Example 1, 4-((1S,2S,4S)-2-(Dimethylamino)-4-(3-(trifluoromethyl)phenyl)cyclohexyl)-6-fluoro-3-oxo-N-(pyrimidin-4-yl)-3,4-dihydro-2H-benzo[b][1,4]oxazine-7-sulfonamide formate] yielded an IC50 (hNav1.7 [1]) of 3.13 nM and an IC50 (hNav1.7 [2]) of 18.8 nM.

Work on `CN(C)[C@H]1C[C@@H](c2cccc(C(F)(F)F)c2)CC[C@@H]1N1CCOc2cc(S(=O)(=O)Nc3ccncn3)c(F)cc21` [Example 2, 4-((1S,2S,4S)-2-(Dimethylamino)-4-(3-(trifluoromethyl)phenyl)cyclohexyl)-6-fluoro-N-(pyrimidin-4-yl)-3,4-dihydro-2H-benzo[b][1,4]oxazine-7-sulfonamide formate] yielded an IC50 (hNav1.7 [1]) of 1.01 nM and an IC50 (hNav1.7 [2]) of 0.686 nM.

`CN(C)[C@H]1C[C@@H](c2cccc(C(F)(F)F)c2)CC[C@@H]1n1c(=O)oc2cc(S(=O)(=O)Nc3ccncn3)c(F)cc21` [Example 3, 3-((1S,2S,4S)-2-(Dimethylamino)-4-(3-(trifluoromethyl)phenyl)cyclohexyl)-5-fluoro-2-oxo-N-(pyrimidin-4-yl)-2,3-dihydrobenzo[d]oxazole-6-sulfonamide formate] gave an IC50 (hNav1.7 [1]) of 26.2 nM and an IC50 (hNav1.7 [2]) of 83.1 nM.

`CN(C)[C@H]1C[C@@H](c2ccc(Cl)c(Cl)c2)CC[C@@H]1Nc1cc(F)c(S(=O)(=O)Nc2ccncn2)cc1Cl` [Example 4, 5-Chloro-4-(((1S,2S,4S)-4-(3,4-dichlorophenyl)-2-(dimethylamino)cyclohexyl)amino)-2-fluoro-N-(pyrimidin-4-yl)benzenesulfonamide] was tested, and the IC50 (hNav1.7 [1]) was 0.305 nM and the IC50 (hNav1.7 [2]) was 1.2 nM.

`CN(C)[C@H]1C[C@@H](c2cccc(C(F)(F)F)c2)CC[C@@H]1Nc1cc(F)c(S(=O)(=O)Nc2ccncn2)cc1OC(F)F` [Example 5, 5-(Difluoromethoxy)-4-(((1S,2S,4S)-2-(dimethylamino)-4-(3-(trifluoromethyl)phenyl)-cyclohexyl)amino)-2-fluoro-N-(pyrimidin-4-yl)benzenesulfonamide formate] was tested, and the IC50 (hNav1.7 [1]) was 0.519 nM and the IC50 (hNav1.7 [2]) was 1.37 nM.

`CN(C)[C@H]1C[C@@H](c2ccc(F)c(C(F)(F)F)c2)CC[C@@H]1Nc1cc(F)c(S(=O)(=O)Nc2ccncn2)cc1Cl` [Example 6, 5-chloro-4-(((1S,2S,4S)-2-(dimethylamino)-4-(4-fluoro-3-(trifluoromethyl)phenyl)-cyclohexyl)amino)-2-fluoro-N-(pyrimidin-4-yl)benzenesulfonamide] showed an IC50 (hNav1.7 [1]) of 0.765 nM and an IC50 (hNav1.7 [2]) of 0.791 nM.

For `CN(C)[C@H]1C[C@@H](c2ccc(Cl)c(C(F)(F)F)c2)CC[C@@H]1Nc1cc(F)c(S(=O)(=O)Nc2ccncn2)cc1Cl` [Example 7], the IC50 (hNav1.7 [1]) was 0.327 nM and the IC50 (hNav1.7 [2]) was 0.52 nM.

`CN(C)[C@H]1C[C@@H](Cc2cccc(C(F)(F)F)c2)CC[C@@H]1Nc1cc(F)c(S(=O)(=O)Nc2ccncn2)cc1Cl` [Example 8, 5-chloro-4-(((1S,2S,4R)-2-(dimethylamino)-4-(3-(trifluoromethyl)benzyl)cyclohexyl)amino)-2-fluoro-N-(pyrimidin-4-yl)benzenesulfonamide] gave an IC50 (hNav1.7 [1]) of 0.991 nM and an IC50 (hNav1.7 [2]) of 6.45 nM.

Work on `CN(C)[C@H]1C[C@@H](c2cccc(C(F)(F)F)c2)CC[C@@H]1Nc1ccc(S(=O)(=O)Nc2ccncn2)cc1F` [Example 89, 4-(((1S,2S,4S)-2-(Dimethylamino)-4-(3-(trifluoromethyl)phenyl)cyclohexyl)amino)-3-fluoro-N-(pyrimidin-4-yl)benzenesulfonamide formate] yielded an IC50 (hNav1.7 [2]) of 12.4 nM.

For `O=S(=O)(Nc1ccncn1)c1cc(Cl)c(O[C@H]2CC[C@H](c3cccc(C(F)(F)F)c3)C[C@@H]2N2CCC(O)C2)cc1F` (stereo partly shown) [Example 90, formate], the IC50 (hNav1.7 [1]) was 0.57 nM.
